Data on 11 molecules can be found in PubChem BioAssay (NCI).

Among the test systems are A549 NSCLC; BT-549 breast; HCC-2998 colon; HT29 colon; LOX IMVI melanoma; M14 melanoma; MDA-MB-435; NCI-H23 lung; NCI-H460 lung; RXF 393 renal; SK-MEL-28 melanoma; SR leukemia; UACC-62 melanoma.
Holding throughout (experiment): inhibition of tumour cell growth, NCI panel, 48 h

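Assay format: 96-well plates, 48-hour exposure. TGI is the concentration that stops growth completely.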 Bounds are passed on as bounds.

Consider `O=S(=O)(O)c1cc(Cl)c(O)c2ncc(Cl)cc12`, for which the TGI in the assay with A549 NSCLC, with BT-549 breast, in the assay on HCC-2998 colon, with HT29 colon, in the assay with LOX IMVI melanoma and in the assay with M14 melanoma was > 100 µM in each case. For the same molecule, the TGI in the assay with MDA-MB-435, in the assay with NCI-H23 lung, with NCI-H460 lung, in the assay with RXF 393 renal, in the assay with SK-MEL-28 melanoma and in the assay with SR leukemia was > 100 µM throughout. The TGI in the assay with UACC-62 melanoma was > 100 µM.

Turning to `c1ccc(COc2ccc(C[P+](c3ccccc3)(c3ccccc3)c3ccccc3)cc2)cc1`, the TGI was found to be 11.3 µM in the assay with A549 NSCLC; 3.26 µM with BT-549 breast; 4.81 µM in the assay with HCC-2998 colon; 2.02 µM in the assay on HT29 colon; 2.56 µM in the assay on LOX IMVI melanoma; 4.97 µM in the assay on M14 melanoma. The TGI in the assay with MDA-MB-435 is 1.7 µM; in the assay on NCI-H23 lung, 1.36 µM; with NCI-H460 lung, 3.81 µM; with RXF 393 renal it was 0.361 µM; with SK-MEL-28 melanoma it was 5.04 µM; in the assay with SR leukemia, > 24.2 µM. In addition, the TGI in the assay with UACC-62 melanoma stood at 1.74 µM.

For `CCOC(=O)c1nc2c3c(ncn2n1)Oc1c(c(-c2ccccc2)nn1-c1ccccc1)C3c1ccc(OC)c(OC)c1` (configuration not stated), the TGI in the assay with A549 NSCLC, with BT-549 breast, with HCC-2998 colon, with HT29 colon, in the assay with LOX IMVI melanoma and in the assay with M14 melanoma was > 100 µM in each case. Also, the TGI in the assay on MDA-MB-435 was > 100 µM; in the assay on NCI-H23 lung, > 100 µM; in the assay on NCI-H460 lung it was > 100 µM; in the assay with RXF 393 renal it was 91.4 µM; in the assay with SK-MEL-28 melanoma, > 100 µM; in the assay with SR leukemia it was > 100 µM. Further, in the assay with UACC-62 melanoma, the TGI was > 100 µM.

`Cc1ncc([N+](=O)[O-])n1CCN(C)CCCCn1ccnc1[N+](=O)[O-]`: the TGI in the assay with A549 NSCLC, in the assay on BT-549 breast, with HCC-2998 colon, with HT29 colon, with LOX IMVI melanoma and in the assay with M14 melanoma was > 100 µM in each case. For the same molecule, the TGI with MDA-MB-435, in the assay on NCI-H23 lung, in the assay on NCI-H460 lung, in the assay with RXF 393 renal, in the assay with SK-MEL-28 melanoma and in the assay on SR leukemia was > 100 µM in each case. For the same molecule, the TGI with UACC-62 melanoma is > 100 µM.

Turning to `CC1C(c2ccc(N(C)C)cc2)c2cc3c(cc2OC1N1CCCC1)OCO3` (configuration not stated), the TGI is > 100 µM in the assay on A549 NSCLC; > 100 µM in the assay with BT-549 breast; > 100 µM in the assay on HCC-2998 colon; > 81.9 µM in the assay on HT29 colon; > 100 µM with LOX IMVI melanoma; > 100 µM with M14 melanoma. Also, the TGI with MDA-MB-435 is 60.4 µM; in the assay on NCI-H23 lung it was > 100 µM; with NCI-H460 lung it was > 95.3 µM; in the assay on RXF 393 renal, > 100 µM; with SK-MEL-28 melanoma, > 100 µM; with SR leukemia, > 100 µM. The TGI in the assay with UACC-62 melanoma is > 100 µM.

`N#CI1OC(=O)c2ccccc21`: the TGI in the assay with A549 NSCLC, in the assay on BT-549 breast, in the assay with HCC-2998 colon, in the assay on HT29 colon, with LOX IMVI melanoma and in the assay with M14 melanoma was > 100 µM in each case. The TGI with MDA-MB-435, in the assay with NCI-H23 lung, in the assay on NCI-H460 lung, in the assay with RXF 393 renal, in the assay with SK-MEL-28 melanoma and in the assay on SR leukemia was > 100 µM throughout. Besides, the TGI in the assay on UACC-62 melanoma was > 100 µM.

Regarding `O=c1c2cc([N+](=O)[O-])ccc2n2n1Cc1ccccc1CC2`, the TGI with A549 NSCLC, in the assay with BT-549 breast, with HCC-2998 colon, with HT29 colon, with LOX IMVI melanoma and in the assay with M14 melanoma was > 100 µM each time. The TGI in the assay on MDA-MB-435, in the assay with NCI-H23 lung, in the assay on NCI-H460 lung, in the assay with RXF 393 renal, with SK-MEL-28 melanoma and in the assay on SR leukemia was > 100 µM each time. The TGI in the assay on UACC-62 melanoma is > 100 µM.

For `Fc1cccc(F)c1C1SCC2=Nc3ccccc3CN21` (configuration not stated), the TGI with A549 NSCLC, in the assay with BT-549 breast, in the assay on HCC-2998 colon, in the assay with LOX IMVI melanoma, in the assay with M14 melanoma and with MDA-MB-435 was > 100 µM throughout. Moreover, the TGI in the assay with NCI-H23 lung was > 100 µM; with NCI-H460 lung, > 100 µM; in the assay on RXF 393 renal it was 63.2 µM; in the assay on SK-MEL-28 melanoma it was > 100 µM; in the assay on SR leukemia, > 100 µM; in the assay with UACC-62 melanoma it was > 100 µM.

Take `CCOC(=O)C1NCCc2c1[nH]c1ccccc21` (configuration not stated): the TGI with A549 NSCLC, in the assay on BT-549 breast, in the assay on HCC-2998 colon, in the assay with HT29 colon, in the assay on M14 melanoma and with MDA-MB-435 was > 10 µM in each case. In addition, the TGI in the assay with NCI-H23 lung, in the assay with RXF 393 renal, in the assay with SK-MEL-28 melanoma, in the assay with SR leukemia and with UACC-62 melanoma was > 10 µM throughout.

In the case of `NCCC1(N)CCNCC1`, the TGI in the assay with A549 NSCLC, in the assay on BT-549 breast, with HT29 colon, with M14 melanoma, with MDA-MB-435 and in the assay on NCI-H23 lung was > 100 µM each time. For the same molecule, the TGI with NCI-H460 lung, in the assay with RXF 393 renal, with SK-MEL-28 melanoma, with SR leukemia and in the assay with UACC-62 melanoma was > 100 µM throughout.

With `Cc1c(C)c(C)c(-n2c(=O)n(C)c(=O)n2C(C)(C)C)c(C)c1C`, the TGI with A549 NSCLC, in the assay with BT-549 breast, in the assay on HCC-2998 colon, in the assay with LOX IMVI melanoma, in the assay on M14 melanoma and with MDA-MB-435 was > 100 µM in each case. The TGI in the assay with NCI-H23 lung, in the assay with NCI-H460 lung, in the assay on RXF 393 renal, with SK-MEL-28 melanoma, in the assay on SR leukemia and with UACC-62 melanoma was > 100 µM each time.
